Like-named read-outs stand apart in the source and are kept apart here.
Columns and labels:
[1] = tested on: HT29 human colorectal cancer cell line; experiment: In vitro anti-cancer activity, HT29 human colorectal cancer cells; assay type: cell-based; conditions: HT-29
Method: (§1) The anti-cancer effect compound of formula (2) and compounds (3) and (4) were evaluated using the HT29 and Colo205 human colorectal cancer cell lines.
(§2) Human colorectal cancer cells HT29 and Colo205 were plated in a 96-well plate, at a concentration of 1×10^4-5 cells/well. The human colorectal cancer cells were incubated at 37° C. with 5% CO2 overnight. These cancer cells were washed three times with a serum free medium or a phosphate buffer solution (PBS) the next day. The compound of Formula (2) and Compounds (3) and (4) were added to the HT29 and Colo205 human colorectal cancer cells respectively. The experiment was performed three times and the average IC50 value was calculated.

[2] = tested on: Colo205 human colorectal cancer cell line; experiment: In vitro anti-cancer activity, Colo205 human colorectal cancer cells; assay type: cell-based; conditions: COLO 205
Method: as §1, §2

[3] = HT29 human colorectal cancer cells, average of three experiments, FIG. 6, read-out: IC50
[4] = Colo205 human colorectal cancer cells, average of three experiments, FIG. 7, read-out: IC50

SMILES: COc1cc(C)c(OC)c2c1OCO2 [Compound (4)]
- IC50 [1, 3]: > 100 µM
- IC50 [2, 4]: > 100 µM

SMILES: C=C(C)C#Cc1c(C)c(OC)c2c(c1OC)OCO2 [formula (2), 1,2-methylenedioxy-3,6-bismethoxy-4-(3-methyl-3-alkene-1-butyne)-5-methylbenzene]
- IC50 [1, 3]: 66 µM
- IC50 [2, 4]: 9 µM

SMILES: C=C(C)C#Cc1c(C)c(OC)c(OC)c(OC)c1OC [compound (3)]
- IC50 ([1]; Homo sapiens): 59 µM
- IC50 ([2]; Homo sapiens): 42 µM

— patent US8759549B2, “Compound extracted from Antrodia cinnamomea and pharmaceutical composition comprising the same” (priority 2010, dated 2014)
